# Laboratory results taken from ChEMBL document CHEMBL1201862, “PubChem BioAssay data set” (2004).
# Calls of active or inactive are those of the source. For most assays here, no stated cut-off is given here; in the data, actives have a measured EC50 and inactives only a lower limit.
# How the values were obtained:
# [1] = NIH-3T3 fibroblast cytotoxicity, dose response, cytotoxicity control, cell-based, fluorescence, Alamar Blue, secondary assay (AID 2327); type: functional;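 further: NIH-3T3 mouse fibroblasts cultured with fluconazole at 8 µg/mL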
# [2] = fluconazole-exposed Candida albicans growth modulators – fluorescence, retest, confirmation (AID 2467); type: functional, cell-based
# [3] = target: Voltage-dependent T-type calcium channel subunit alpha-1H (Homo sapiens, UniProt O95180); type: functional;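 further: channel activity triggered by adding a high calcium stimulation buffer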
# [4] = Trypanosoma cruzi growth suppression in host cells – NIH3T3 host cells, beta-gal luminescence, confirmation (AID 2044); type: functional, cell-based;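 further: intracellular parasites grown in NIH/3T3 mouse fibroblasts as host cells; luminescent beta-galactosidase reporter signal from transgenic T. cruzi replicating inside host cells; inhibitors lower the luminescence signal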
# [5] = NIH3T3 cell viability loss – ATP luminescence, mouse fibroblasts, counter-screen, dose response (AID 2010); type: functional, cell-based;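 further: cells exposed to compound for about 90 hours before reading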
# INS1 = assay: INS-1E survival protection against cytokine death – cell-based, luminescence, retest, dose response (AID 449756); type: functional; conditions: Rattus norvegicus;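 further: cell death triggered by IL-1 beta plus TNF-alpha plus IFN-gamma mixture; protective hits raise ATP signal compared with cytokine alone wells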
# H4 = assay: Luminescence Cell-Based Dose Response HTS to Identify Activators of 5'UTR Stem-Loop Driven Prion Protein mRNA Translation in H4 Neuroglioblastoma Cells. [Related pubchem assays: 1829 (Project Summary), 1814 (Primary HTS)]; type: functional; conditions: Homo sapiens
# [6] = Luminescence Cell-Based Dose Response HTS to Identify Activators of Luciferase Translation or Activity in H4 […] Cells. [Related pubchem assays: 1829 (Project Summary), 1814 (Primary HTS)]; type: functional
# [7] = Luminescence Cell-Based Dose Confirmation HTS to Identify Activators of 5'UTR Stem-Loop Driven Alpha-Synuclein mRNA Translation in H4 Neuroglioblastoma Cells. [Related pubchem assays: 1829 (Project Summary), 1814 (Primary HTS)]; type: functional
# BJ [8] = assay: BJ-TERT-LT-ST fibroblast viability loss – cell-based, RAS-independent, luminescence, dose response (AID 1935); type: functional; conditions: Homo sapiens;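 further: BJ fibroblasts immortalized with TERT plus LT and ST oncogenes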
# BJ [9] = assay: BJ-TERT fibroblast viability loss – cell-based, RAS-independent, luminescence, dose response (AID 1933); type: functional; conditions: Homo sapiens
# [10] = DRD fibroblast viability loss – cell-based, non-viral oncogenic, luminescence, dose response (AID 1934); type: functional; conditions: Homo sapiens
# BJ [11] = assay: cells; type: functional, cell-based; conditions: Homo sapiens
# Fatty acid synthase [12] = target: T1, Fatty acid synthase (Homo sapiens, UniProt P49327); assay: inhibition of human FAS-TE enzyme activity – biochemical, kinetic fluorescence intensity, dose response (AID 624326); type: functional;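 further: rate of fluorescence rise from hydrolysis of a fluorogenic O-methyl fluorescein ester substrate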
# [13] = viability of uninfected HEp-2 cells – cell-based, HTS, cytotoxicity control for RSV inhibitor project, dose response (AID 2410); type: functional; conditions: human respiratory syncytial virus
# [14] = target: T2, Heat shock factor protein 1 (Mus musculus, UniProt P38532); assay: enhancement of HSF1-driven luciferase signal – cell-based, NIH3T3, luminescence, dose retest, confirmation (AID 435004); type: functional;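 further: stress induced by proteasome inhibitor MG132 added 30 min after compound; luciferase reporter driven by HSF1 response element in NIH3T3 cells; actives raise luminescence as potentiators of the MG132 stress response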
# T2 sequence (P38532 whole entry): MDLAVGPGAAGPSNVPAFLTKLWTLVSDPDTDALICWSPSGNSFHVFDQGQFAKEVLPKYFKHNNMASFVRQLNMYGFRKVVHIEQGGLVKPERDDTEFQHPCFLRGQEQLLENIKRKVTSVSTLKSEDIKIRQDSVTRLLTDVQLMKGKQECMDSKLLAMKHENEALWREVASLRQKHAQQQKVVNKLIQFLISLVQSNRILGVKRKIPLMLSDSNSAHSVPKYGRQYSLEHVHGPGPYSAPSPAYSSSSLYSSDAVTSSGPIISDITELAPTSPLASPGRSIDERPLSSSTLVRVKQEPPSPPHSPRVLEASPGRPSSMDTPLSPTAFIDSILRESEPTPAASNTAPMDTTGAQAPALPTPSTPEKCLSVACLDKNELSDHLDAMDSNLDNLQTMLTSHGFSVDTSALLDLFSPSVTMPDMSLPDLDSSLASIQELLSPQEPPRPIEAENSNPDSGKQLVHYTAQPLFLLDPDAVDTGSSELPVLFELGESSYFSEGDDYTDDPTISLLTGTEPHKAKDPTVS
# Caspase-6 = target: T3, Caspase-6 (Homo sapiens, UniProt P55212); assay: inhibition of CASP6 peptide cleavage – biochemical, VEID-R110 fluorescence, cherry-pick, dose response (AID 720632)
# T3 sequence (P55212 whole entry): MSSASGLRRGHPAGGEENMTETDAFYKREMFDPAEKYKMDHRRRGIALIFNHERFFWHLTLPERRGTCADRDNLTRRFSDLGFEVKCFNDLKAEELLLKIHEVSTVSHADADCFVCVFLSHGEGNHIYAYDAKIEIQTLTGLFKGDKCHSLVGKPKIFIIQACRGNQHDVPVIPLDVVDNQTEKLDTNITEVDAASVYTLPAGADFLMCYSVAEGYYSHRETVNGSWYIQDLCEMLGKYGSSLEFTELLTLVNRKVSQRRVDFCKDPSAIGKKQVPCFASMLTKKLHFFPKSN
# Fatty acid synthase [15] = target: T1, Fatty acid synthase; assay: inhibition of human FAS-TE enzyme activity – biochemical, endpoint fluorescence intensity, uHTS hits, dose response (AID 624327); type: functional;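 further: fluorescence from hydrolysis of an O-methyl fluorescein acyl ester substrate by the enzyme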
# Streptokinase A = target: T4, Streptokinase A (Streptococcus pyogenes serotype M1, UniProt P10520); assay: viability-normalized secreted streptokinase activity reduction – plasminogen activation absorbance, OD405, dose response (AID 1914); type: functional, Streptococcus pyogenes M1 GAS;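 further: secreted streptokinase activity via plasminogen activation per viability signal from cell pellet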
# T4 sequence (P10520 whole entry): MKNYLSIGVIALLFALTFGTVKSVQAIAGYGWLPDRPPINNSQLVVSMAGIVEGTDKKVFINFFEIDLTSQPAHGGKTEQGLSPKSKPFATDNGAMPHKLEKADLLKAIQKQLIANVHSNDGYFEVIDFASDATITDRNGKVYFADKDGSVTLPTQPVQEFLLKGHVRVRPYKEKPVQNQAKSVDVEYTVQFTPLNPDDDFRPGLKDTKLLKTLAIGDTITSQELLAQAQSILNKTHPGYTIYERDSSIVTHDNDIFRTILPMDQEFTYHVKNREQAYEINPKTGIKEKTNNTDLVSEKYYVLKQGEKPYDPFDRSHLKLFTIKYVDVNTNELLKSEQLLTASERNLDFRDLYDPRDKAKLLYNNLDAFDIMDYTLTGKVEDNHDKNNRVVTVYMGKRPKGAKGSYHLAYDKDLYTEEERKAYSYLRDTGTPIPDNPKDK
# Streptococcus = assay: GAS UMAA2166 growth inhibition – luminescence, BacTiterGlo, counter-screen for streptokinase expression inhibitor project, dose response (AID 1915); type: functional, organism-based;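 further: potency for reduction of bacterial viability or growth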
# [16] = system: Streptococcus sp. 'group A'; assay: Streptococcus pyogenes SK(-)GAS viability under kanamycin – luminescence, BacTiterGlo, confirmation, counter-screen for streptokinase expression inhibitor project, dose response (AID 1900); type: functional, organism-based
# P388 = assay: cells; type: functional; conditions: Mus musculus
# SN12K1 = assay: cells; type: functional; conditions: Homo sapiens
# P388/ADR = assay: cells; type: functional; conditions: Mus musculus
# [17] = toxicity toward HepG2 liver cells – cell-based, plate reader, cherry-pick, antagonist series, cytotoxicity control, dose response (AID 743416); type: functional
# T1 sequence (P49327 whole entry): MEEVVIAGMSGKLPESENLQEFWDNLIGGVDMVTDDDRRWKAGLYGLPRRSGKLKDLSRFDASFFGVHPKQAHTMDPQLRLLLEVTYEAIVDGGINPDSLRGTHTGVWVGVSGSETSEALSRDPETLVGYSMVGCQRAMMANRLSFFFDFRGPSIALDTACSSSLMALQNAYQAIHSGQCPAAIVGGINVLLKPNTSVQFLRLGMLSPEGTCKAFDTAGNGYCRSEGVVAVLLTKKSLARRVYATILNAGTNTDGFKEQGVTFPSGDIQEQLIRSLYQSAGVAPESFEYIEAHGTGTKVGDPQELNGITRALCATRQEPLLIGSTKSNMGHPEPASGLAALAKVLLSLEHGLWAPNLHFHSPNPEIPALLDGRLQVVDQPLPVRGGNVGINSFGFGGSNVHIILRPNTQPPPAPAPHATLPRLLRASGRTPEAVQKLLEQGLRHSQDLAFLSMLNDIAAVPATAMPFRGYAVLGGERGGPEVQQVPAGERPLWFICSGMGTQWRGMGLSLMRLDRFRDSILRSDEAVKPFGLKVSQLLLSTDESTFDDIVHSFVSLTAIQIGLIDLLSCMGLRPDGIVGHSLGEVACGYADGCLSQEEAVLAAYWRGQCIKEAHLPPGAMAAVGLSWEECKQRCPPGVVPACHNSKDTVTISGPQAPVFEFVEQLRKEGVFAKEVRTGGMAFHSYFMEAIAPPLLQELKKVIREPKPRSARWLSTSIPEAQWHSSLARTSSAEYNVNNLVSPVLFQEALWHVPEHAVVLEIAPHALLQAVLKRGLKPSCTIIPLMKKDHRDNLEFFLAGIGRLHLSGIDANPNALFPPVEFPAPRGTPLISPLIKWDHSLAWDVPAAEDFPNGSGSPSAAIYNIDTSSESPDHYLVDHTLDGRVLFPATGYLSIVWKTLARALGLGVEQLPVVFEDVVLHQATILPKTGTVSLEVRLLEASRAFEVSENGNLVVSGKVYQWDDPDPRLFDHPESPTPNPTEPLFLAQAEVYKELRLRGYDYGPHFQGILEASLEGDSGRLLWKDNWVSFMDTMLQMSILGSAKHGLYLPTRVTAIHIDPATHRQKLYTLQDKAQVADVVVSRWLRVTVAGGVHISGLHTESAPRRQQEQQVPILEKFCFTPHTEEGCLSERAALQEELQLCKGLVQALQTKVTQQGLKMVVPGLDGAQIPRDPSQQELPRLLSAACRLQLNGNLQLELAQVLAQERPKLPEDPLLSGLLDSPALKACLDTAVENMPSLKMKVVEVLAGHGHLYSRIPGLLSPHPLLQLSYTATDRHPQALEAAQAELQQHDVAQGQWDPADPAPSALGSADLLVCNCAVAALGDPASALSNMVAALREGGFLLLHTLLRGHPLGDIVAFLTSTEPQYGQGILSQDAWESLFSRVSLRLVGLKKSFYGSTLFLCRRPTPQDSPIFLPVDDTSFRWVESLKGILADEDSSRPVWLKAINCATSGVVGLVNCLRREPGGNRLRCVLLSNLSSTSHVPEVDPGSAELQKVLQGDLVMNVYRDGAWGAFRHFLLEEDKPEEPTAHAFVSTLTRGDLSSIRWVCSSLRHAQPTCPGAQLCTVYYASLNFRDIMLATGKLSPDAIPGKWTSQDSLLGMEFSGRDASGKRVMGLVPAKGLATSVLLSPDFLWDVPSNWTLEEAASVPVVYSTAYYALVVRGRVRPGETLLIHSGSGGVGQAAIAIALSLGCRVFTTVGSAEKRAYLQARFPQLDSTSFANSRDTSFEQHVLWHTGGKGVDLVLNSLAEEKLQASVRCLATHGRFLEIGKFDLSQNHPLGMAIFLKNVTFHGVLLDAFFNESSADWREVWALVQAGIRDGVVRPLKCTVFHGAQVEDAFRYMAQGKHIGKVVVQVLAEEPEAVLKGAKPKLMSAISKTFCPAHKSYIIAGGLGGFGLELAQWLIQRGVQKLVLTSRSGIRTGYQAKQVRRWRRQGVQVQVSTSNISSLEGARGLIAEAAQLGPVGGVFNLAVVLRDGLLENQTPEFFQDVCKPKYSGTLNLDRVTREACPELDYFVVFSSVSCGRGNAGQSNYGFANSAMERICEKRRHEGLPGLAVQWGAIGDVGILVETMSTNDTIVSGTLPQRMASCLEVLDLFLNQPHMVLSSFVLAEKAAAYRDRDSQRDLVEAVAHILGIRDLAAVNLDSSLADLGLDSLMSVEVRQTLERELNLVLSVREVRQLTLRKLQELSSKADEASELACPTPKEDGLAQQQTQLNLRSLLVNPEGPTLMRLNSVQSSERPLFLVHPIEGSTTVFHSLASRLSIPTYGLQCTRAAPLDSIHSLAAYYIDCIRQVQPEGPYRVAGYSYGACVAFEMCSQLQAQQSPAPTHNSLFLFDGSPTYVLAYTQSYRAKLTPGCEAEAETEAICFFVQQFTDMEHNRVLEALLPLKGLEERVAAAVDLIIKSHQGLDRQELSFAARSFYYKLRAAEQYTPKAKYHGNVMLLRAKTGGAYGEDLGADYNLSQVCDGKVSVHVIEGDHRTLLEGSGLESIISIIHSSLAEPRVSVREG
# Voltage-dependent T-type calcium channel subunit alpha-1H, sequence (O95180 whole entry): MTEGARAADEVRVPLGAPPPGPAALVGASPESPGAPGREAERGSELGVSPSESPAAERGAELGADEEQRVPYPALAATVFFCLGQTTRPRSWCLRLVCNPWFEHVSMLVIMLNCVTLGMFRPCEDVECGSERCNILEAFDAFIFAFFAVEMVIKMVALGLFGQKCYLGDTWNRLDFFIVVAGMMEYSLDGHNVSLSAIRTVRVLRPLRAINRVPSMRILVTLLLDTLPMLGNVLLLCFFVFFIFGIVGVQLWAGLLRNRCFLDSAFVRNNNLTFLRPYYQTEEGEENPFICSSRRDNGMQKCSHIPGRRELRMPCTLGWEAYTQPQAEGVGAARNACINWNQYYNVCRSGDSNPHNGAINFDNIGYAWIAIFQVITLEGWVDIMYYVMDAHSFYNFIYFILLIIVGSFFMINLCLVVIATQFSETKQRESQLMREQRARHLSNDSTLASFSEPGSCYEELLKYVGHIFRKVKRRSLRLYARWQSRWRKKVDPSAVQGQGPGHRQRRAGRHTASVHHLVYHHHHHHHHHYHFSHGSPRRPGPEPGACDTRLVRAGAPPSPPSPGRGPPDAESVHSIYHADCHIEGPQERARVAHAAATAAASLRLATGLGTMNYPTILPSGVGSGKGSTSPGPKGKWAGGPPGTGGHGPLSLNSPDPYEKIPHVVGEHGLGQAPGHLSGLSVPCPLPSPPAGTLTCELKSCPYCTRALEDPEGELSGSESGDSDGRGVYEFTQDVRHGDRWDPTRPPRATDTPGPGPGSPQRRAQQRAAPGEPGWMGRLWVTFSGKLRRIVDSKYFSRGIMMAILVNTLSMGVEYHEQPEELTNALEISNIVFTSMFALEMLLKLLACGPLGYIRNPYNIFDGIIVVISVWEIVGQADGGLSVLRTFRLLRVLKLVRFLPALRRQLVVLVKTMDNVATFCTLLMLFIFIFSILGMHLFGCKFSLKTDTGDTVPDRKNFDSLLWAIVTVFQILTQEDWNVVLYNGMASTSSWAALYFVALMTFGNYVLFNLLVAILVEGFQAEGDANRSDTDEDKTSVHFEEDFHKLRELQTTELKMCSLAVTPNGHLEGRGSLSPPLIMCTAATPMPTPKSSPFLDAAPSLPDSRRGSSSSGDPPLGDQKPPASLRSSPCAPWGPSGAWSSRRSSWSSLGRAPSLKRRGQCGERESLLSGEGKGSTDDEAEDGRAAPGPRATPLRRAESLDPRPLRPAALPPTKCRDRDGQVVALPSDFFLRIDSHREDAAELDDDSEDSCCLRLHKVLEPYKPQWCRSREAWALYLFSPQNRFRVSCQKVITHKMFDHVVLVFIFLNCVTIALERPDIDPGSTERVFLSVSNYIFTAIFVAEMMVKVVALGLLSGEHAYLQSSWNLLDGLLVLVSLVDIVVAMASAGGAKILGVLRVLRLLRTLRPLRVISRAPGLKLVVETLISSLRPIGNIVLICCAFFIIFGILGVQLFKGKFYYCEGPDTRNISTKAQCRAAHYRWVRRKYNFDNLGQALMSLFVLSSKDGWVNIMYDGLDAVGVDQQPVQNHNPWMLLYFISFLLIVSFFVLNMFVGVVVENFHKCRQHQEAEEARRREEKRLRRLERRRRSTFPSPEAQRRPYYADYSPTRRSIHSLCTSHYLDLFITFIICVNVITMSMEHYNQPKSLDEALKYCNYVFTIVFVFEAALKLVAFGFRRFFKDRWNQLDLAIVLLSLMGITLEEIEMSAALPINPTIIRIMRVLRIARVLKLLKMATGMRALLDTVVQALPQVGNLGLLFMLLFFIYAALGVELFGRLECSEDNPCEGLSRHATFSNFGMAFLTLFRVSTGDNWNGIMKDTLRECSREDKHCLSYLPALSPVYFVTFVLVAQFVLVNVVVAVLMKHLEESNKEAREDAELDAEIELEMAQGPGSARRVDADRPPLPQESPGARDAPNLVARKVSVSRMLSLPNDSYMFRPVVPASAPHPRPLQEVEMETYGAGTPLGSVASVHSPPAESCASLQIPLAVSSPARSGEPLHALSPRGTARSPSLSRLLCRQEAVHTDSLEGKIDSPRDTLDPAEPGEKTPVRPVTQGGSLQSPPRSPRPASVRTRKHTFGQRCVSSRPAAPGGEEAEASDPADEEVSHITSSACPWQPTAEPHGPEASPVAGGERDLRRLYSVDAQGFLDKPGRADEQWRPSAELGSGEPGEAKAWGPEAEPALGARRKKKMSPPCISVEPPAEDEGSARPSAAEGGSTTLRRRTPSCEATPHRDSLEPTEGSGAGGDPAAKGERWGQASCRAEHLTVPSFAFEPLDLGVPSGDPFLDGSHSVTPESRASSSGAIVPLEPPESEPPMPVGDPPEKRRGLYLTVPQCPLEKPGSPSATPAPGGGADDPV
smiles,measurement,setting,value
Cc1cc(Sc2nc(N)ncc2[N+](=O)[O-])ncn1,EC50,[1],4.19 µM (inconclusive)
same,EC50,[2],0.746 µM (active)
CC(NC(=O)CCC(=O)NC(C)C1COc2ccccc2O1)C1COc2ccccc2O1 (configuration not stated),EC50,[3],4.07 µM (active)
Cc1ccc(C(CC(=O)NCc2ccco2)c2ccc(OC(C)C)cc2)cc1 (configuration not stated),EC50,[3],15.9 µM (active)
CCCCCCCC[n+]1cccc2c3ccccc3ccc21,EC50,[1],69.2 µM (active)
same,EC50,[4],0.161 µM (active)
same,EC50,[2],2.81 µM (active)
same,EC50,[5],8.8 µM (active)
same,AC50,INS1,0.268 µM (active)
O=C(NCc1ccco1)c1cc2c(s1)CCCCC2,EC50,H4,> 120 µM (not active)
same,EC50,[6],41.9 µM (active)
same,EC50,[7],34 µM (active)
CC(=O)c1ccc(Oc2ccc(C(=O)c3ccc(C)c(C)c3)cc2[N+](=O)[O-])cc1,EC50,BJ [8],> 150 µM (not active)
same,EC50,BJ [9],26.4 µM (active)
same,EC50,[10],> 150 µM (inconclusive)
same,EC50,BJ [11],> 150 µM (not active)
CN1CCC(=NNC(=O)C(=O)Nc2ccc(F)cc2)CC1,EC50,H4,15 µM (active)
same,EC50,[6],23.6 µM (active)
same,EC50,[7],14.5 µM (active)
O=CNCCCc1nc2ccccc2n1Cc1cccc2ccccc12,EC50,[1],> 150 µM (inactive)
same,EC50,[2],4.77 µM (active)
O=S(=O)(c1ccc(-c2csc(-c3cccnc3)n2)cc1)N1CCCCC1,EC50,[4],1.89 µM (active)
same,IC50,Fatty acid synthase [12],3.65 µM (active)
same,EC50,[5],> 30 µM (not active)
same,CC50,[13],40.1 µM (active)
O=C(OCC(=O)N1CCCC1=O)c1nc(Cl)c(Cl)c(Cl)c1Cl,EC50,H4,> 120 µM (not active)
same,EC50,[6],> 120 µM (not active)
same,EC50,[7],14.4 µM (active)
O=C(Nc1cccc(NC(=O)c2ccc(-c3ccc(Br)cc3)o2)c1)c1ccccc1,EC50,[3],19.1 µM (active)
COc1ccc(-c2noc(CCC(=O)N3CCN(c4cc(C)ccc4C)CC3)n2)cc1,EC50,[3],3.63 µM (active)
Cc1ccc(-c2nnc(SCC(C)C)n2C)cc1,EC50,H4,10.1 µM (active)
same,EC50,[6],88.6 µM (active)
same,EC50,[7],11.5 µM (active)
Sc1nc2cc(Cl)c3cccnc3c2o1,EC50,[14],> 260 µM (inactive)
same,EC50,[1],> 150 µM (inactive)
same,EC50,[2],> 38 µM (not active)
Cc1nc2c(-c3ccc(F)cc3)c(C)nn2c(C)c1CCC(=O)N1CCN(c2ccc(F)cc2)CC1,EC50,[3],5.21 µM (active)
Cc1cc(C)c(NS(=O)(=O)c2cccc3cccnc23)c(C)c1,EC50,[1],38.5 µM (active)
same,EC50,[2],> 38 µM (not active)
O=C(COC(=O)c1ccc([N+](=O)[O-])o1)Nc1ncc(Cl)cc1Cl,AC50,Caspase-6,28.3 µM (active)
CCSc1nc2ccccc2n1CCOc1ccccc1,EC50,[3],18.2 µM (active)
Cc1ccc(C(=O)Cn2c(-c3ccccc3)noc2=O)cc1,EC50,H4,15 µM (active)
same,EC50,[6],12.4 µM (active)
same,EC50,[7],13.1 µM (active)
O=C1CC(N2CCN(c3ccc(S(=O)(=O)N4CCOCC4)cc3)CC2)C(=O)N1Cc1ccccc1 (configuration not stated),IC50,Fatty acid synthase [15],8.79 µM (active)
same,IC50,Fatty acid synthase [12],7.53 µM (active)
O=C(O)CSc1nc2sc3c(c2c(=O)n1Cc1ccccc1)CCCCC3,EC50,H4,16.4 µM (active)
same,EC50,[6],15.6 µM (active)
same,EC50,[7],> 60 µM (not active)
O=C(Nc1cc([N+](=O)[O-])ccc1O)c1ccc2c(c1)C(=O)N(Cc1ccco1)C2=O,AC50,Caspase-6,18.5 µM (active)
COc1ccc(-n2c(C)cc(/C=C/c3nc(O)c([N+](=O)[O-])c(O)n3)c2C)cc1,AC50,Caspase-6,18.8 µM (active)
COc1ccc(CC(=N)NOC(=O)c2cccc([N+](=O)[O-])c2)cc1,IC50,Fatty acid synthase [15],18.3 µM (active)
same,IC50,Fatty acid synthase [12],14.6 µM (active)
NC(S)=NNc1cccc(Cl)c1,EC50,[1],> 160 µM (inactive)
same,EC50,[2],> 38 µM (not active)
O=C(CC1C[C@H](C(=O)N2CCOCC2)[C@@]2(CCC3CCCC3)c3[nH]c4ccccc4c3CCN2C1=O)NCCCn1ccnc1 (some centres not stated),IC50,Fatty acid synthase [15],4.37 µM (active)
same,IC50,Fatty acid synthase [12],2.7 µM (active)
[O-][n+]1c2ccccc2[n+]([O-])c2cc(O)ccc21,AC50,Caspase-6,6.89 µM (active)
same,EC50,Streptokinase A,> 150 µM (not active)
same,EC50,Streptococcus,17.3 µM (active)
same,EC50,[16],7.97 µM (active)
Nc1ncc2c(n1)-c1ccccc1OC2,GI50,P388,> 100 µM (inactive)
same,GI50,SN12K1,> 100 µM (inactive)
CN(C)CCNC(=O)c1cccc2c1C(=O)c1ccccc1C2=O,GI50,P388,19.7 µM (inactive)
same,GI50,SN12K1,49.5 µM (inactive)
same,GI50,P388/ADR,20.8 µM (inactive)
CC(/C=N/N=C(N)N)=N\N=C(N)N,GI50,P388,0.25 µM (active)
same,GI50,SN12K1,2.17 µM (inactive)
same,GI50,P388/ADR,0.519 µM (active)
CC1=CC2c3cccc4[nH]cc(c34)CC2N(C)C1 (configuration not stated),GI50,P388,31 µM (inactive)
same,GI50,SN12K1,27.2 µM (inactive)
same,GI50,P388/ADR,14.2 µM (inactive)
Cc1c2c(cc3c1[nH]c1ccccc13)C(c1ccc(F)cc1)=NCC2,GI50,P388,0.809 µM (active)
same,GI50,SN12K1,0.925 µM (active)
same,GI50,P388/ADR,0.448 µM (active)
O=S(=O)(O)c1cc2ccc1/C=C\c1ccc(cc1S(=O)(=O)O)/N=N\c1ccc(c(S(=O)(=O)O)c1)/C=C\c1ccc(cc1S(=O)(=O)O)/N=N\2,GI50,P388,> 100 µM (inactive)
same,GI50,SN12K1,> 100 µM (inactive)
same,GI50,P388/ADR,> 100 µM (inactive)
Cc1ccc(S(=O)(=O)N2CCCc3nc(-c4ccc(F)cc4)ccc32)cc1,AC50,[17],> 52 µM (inactive)
COc1cc([C@@H]2c3cc4c(c(O[C@@H]5O[C@H]6CO[C@@H](C)O[C@H]6[C@H](O)[C@@H]5O)c3C[C@H]3COC(=O)[C@@H]32)OCO4)cc(OC)c1O,GI50,P388,2.16 µM (inactive)
same,GI50,SN12K1,10.9 µM (inactive)
COC1C(O)CC(OC2CC(Oc3cc4cc5c(c(O)c4c(O)c3C)C(=O)[C@@H](OC3CC(OC4CC(OC6CC(C)(O)C(OC(C)=O)C(C)O6)C(O)C(C)O4)C(O)C(C)O3)[C@H]([C@H](OC)C(=O)[C@@H](O)[C@@H](C)O)C5)OC(C)C2OC(C)=O)OC1C (some centres not stated) [CHROMOMYCIN],GI50,SN12K1,0.0034 µM (active)
same,GI50,P388/ADR,0.132 µM (active)
CCCCC/C=C\C/C=C\C/C=C\CCCCC(=O)O [GAMOLENIC ACID],AC50,Caspase-6,0.505 µM (active)
CC1CCC(NC(=O)N(CCCl)N=O)CC1 (configuration not stated) [SEMUSTINE],EC50,H4,16.2 µM (active)
same,EC50,[6],24 µM (active)
same,EC50,[7],5.98 µM (active)
